Values joined by “and” are separate entries in the source; they are usually repeats but may differ in a detail not shown here. Identical values can stand only once. “Also recorded” adds a separate entry of the source. Like-named read-outs stand apart in the source and are kept apart here. Each block holds one compound with its values, some of them ahead of it.
Assays:
[1] = target: T1, recombinant PfSUB1 (rPfSUB1) (Plasmodium falciparum, UniProt Q8I0V0); conditions: cited from earlier work
T1 construct: Chymotrypsin-treated rPfSUB1 (expressed and purified as described previously); made in house

[2] = tested on: asexual blood-stage P. falciparum (clone 3D7); set-up: method as in PMID 22543039, PMID 25129616; conditions: earlier work; cited from earlier work
[3] = target: T1, recombinant PfSUB1 (rPfSUB1); test: rPfSUB1 fluorogenic peptide substrate cleavage inhibition assay; assay type: biochemical
From the text: We previously described the development of a fluorescence-based in vitro assay suitable for the evaluation of substrate-based PfSUB1 inhibitors, using recombinant PfSUB1 (rPfSUB1) and fluorogenic peptide substrates based on cleavage sites within endogenous protein substrates of PfSUB1 ([13], [21]). […] This was perhaps unsurprising due to the high molecular mass and polar nature of these compounds, including the presence of a carboxylic acid moiety that was designed to mimic endogenous PfSUB1 protein substrates by interacting with the basic S’ surface of the PfSUB1 active-site cleft ([16]). Collectively, these features likely rendered the compounds poorly membrane penetrant.
Fluorescence of this peptide is quenched by rhodamine dimerization in the intact substrate but increases upon cleavage at the internal Q-D bond. Chymotrypsin-treated rPfSUB1 (expressed and purified as described previously ([16]) was stored at −80 °C as a 228 U/mL stock in 20 mM Tris–HCl pH 8.2, 150 mM NaCl, 10% glycerol, and diluted for use (1:500 or 1:600) in reaction buffer (20 mM Tris–HCl pH 8.2, 150 mM NaCl, 12 mM CaCl2, 25 mM CHAPS). Peptidic boronic acid inhibitors were dissolved in 100% DMSO at 10 or 20 mM, then further diluted in DMSO to generate stock solutions ranging from 500 to 0.01 μM and then used diluted 1:100 in the enzyme reactions. All reactions were performed in wells of white 96-well microwell plates (Nunc); 50 μL diluted rPfSUB1 was preincubated for 5 min with 1 μL each of the serially diluted boronic acid inhibitors, followed by addition of 50 μL substrate solution (0.1 μM final). Subsequent fluorescence increase was continuously monitored using a SpectraMax M5e plate reader and SoftMax Pro-6.3 software, with readings taken every 5 min for 60 min using excitation and emission values of 552 and 580 nm, respectively. […] All experiments were performed in duplicate.

[4] = set-up: method as in PMID 30117017; conditions: cited from earlier work
[5] = tested on: asexual blood-stage P. falciparum (clone 3D7); test: SYBR Green I parasite growth assay; assay type: cell-based, Plasmodium falciparum; conditions: for EC50: Plasmodium falciparum, 3D7, 96 h, two erythrocytic growth cycles, SYBR Green I
Procedure: The impact of the peptidic boronic acids on replication of asexual blood-stage P. falciparum (clone 3D7) was assessed using a SYBR Green I assay, essentially as described by Smilkstein et al. ([22]). Briefly, test compounds (dissolved in dimethyl sulfoxide [DMSO] at concentrations ranging from 4 mM to 5 μM) were added in triplicate to wells of flat bottomed, 96-well microtitre plates (1 μL per well). Wells were then supplemented with 100 μL per well of a P. falciparum parasite culture at 0.1% parasitaemia, 1% hematocrit. Each assay plate also included DMSO-only control wells (1% vol/vol), as well as additional control wells containing uninfected RBCs only. Plates were incubated in sealed, humidified gassed chambers at 37 °C for 96 h to allow the parasites to undergo two entire cycles of erythrocytic growth. Wells were then supplemented with 100 μL 1:5,000 dilution of stock SYBR Green I (Life Technologies, catalog no. S7563) diluted in 20 mM Tris HCl pH 7.5, 5 mM EDTA, 0.008% (weight/vol) saponin, 0.08% (vol/vol) Triton ×100. Plates were agitated to mix, incubated for a further 1 h in the dark at room temperature, then 150 μL samples from each well transferred to a fresh white microwell plate and fluorescence quantified using a SpectraMax M5e plate reader and SoftMax Pro-6.3 software (Ex 485 nm/Em 530 nm). IC50 values were determined from dose–response curves obtained after subtracting background fluorescence values (obtained from the RBC-only wells) from all experimental readings.

[6] = tested on: P. falciparum 3D7 schizonts; test: Short-term egress/invasion assay, ring formation by flow cytometry; assay type: cell-based, Plasmodium falciparum; conditions: for EC50: Plasmodium falciparum, mature 3D7 schizonts with RBCs, 4 h, flow cytometry
Procedure: For this, P. falciparum cultures containing synchronous, highly mature schizonts were supplemented with compounds 3b, 3e, 3i, and 3j at a range of dilutions, then allowed to undergo egress and invasion for just 4 h in the continued presence of the compounds, before assessing formation of newly invaded “ring” stage parasites by flow cytometry.
(§1) Short-term egress, invasion, and washout assays were performed essentially as described previously ([27], [28], [42]). Briefly, highly synchronous mature Percoll-enriched schizonts with or without added fresh RBCs (∼5% parasitaemia final) were incubated with compounds under test or vehicle only (DMSO, 1% vol/vol). For washout assays, schizonts were treated with C2 or various concentrations of inhibitor 3j for 1 to 4 h, then washed extensively (at least four times) prior to addition to fresh RBCs where required. After incubation at 37 °C for just 1 to 4 h (or overnight for invasion assays) to allow schizont rupture, cells were pelleted. Clarified culture supernatants were assessed for extent of hemoglobin release (a measure of schizont rupture) by absorption spectroscopy at 415 nm as described previously ([28]) or analyzed by Western blot using antibodies against SERA5 ([7], [11]). To quantify generation of new rings, samples of the cultures were fixed with 4% paraformaldehyde/0.02% glutaraldehyde and stained with SYBR Green I (Life Technologies) and then analyzed by flow cytometry on a BD FACSVerse using BD FACSuite software. Data were analyzed using FlowJo software. All cultures were also routinely analyzed by microscopic examination of Giemsa-stained thin films to visually assess parasite morphology.

[7] = tested on: P. falciparum schizonts expressing EXP2-mNeonGreen; test: Time-lapse video microscopy of egress after compound washout; assay type: cell-based, Plasmodium falciparum; conditions: 1 μM
[8] = tested on: P. falciparum schizonts; test: Ring formation after pretreatment of schizonts and washout; assay type: cell-based, Plasmodium falciparum; conditions: pretreated schizonts washed, fresh RBCs, assessed at 24 h; 3j 10 μM, C2 1 μM
Procedure: as §1

[9] = tested on: PfSUB1-mediated proteolytic processing of SERA5; test: Western blot of SERA5 processing after washout; assay type: cell-based, Plasmodium falciparum; conditions: 4 h pretreatment then washout
From the text: To seek unambiguous confirmation that PfSUB1 is the intracellular target of compound 3j, we examined the effects of the compound on the PfSUB1-mediated proteolytic processing of the established endogenous PfSUB1 substrate SERA5, an abundant parasite PV protein that only becomes accessible to cleavage upon discharge of PfSUB1 into the PV in the minutes leading up to egress and is then released in a processed form into culture supernatants ([6], [11], [12]). […] It was concluded that compound 3j prevents egress and parasite proliferation through direct inhibition of intracellular PfSUB1.
Short-term egress, invasion, and washout assays were performed essentially as described previously ([27], [28], [42]). […] Clarified culture supernatants were assessed for extent of hemoglobin release (a measure of schizont rupture) by absorption spectroscopy at 415 nm as described previously ([28]) or analyzed by Western blot using antibodies against SERA5 ([7], [11]). To quantify generation of new rings, samples of the cultures were fixed with 4% paraformaldehyde/0.02% glutaraldehyde and stained with SYBR Green I (Life Technologies) and then analyzed by flow cytometry on a BD FACSVerse using BD FACSuite software. Data were analyzed using FlowJo software. All cultures were also routinely analyzed by microscopic examination of Giemsa-stained thin films to visually assess parasite morphology.

[10] = fluorogenic peptide substrate, mean ± SD of at least three measurements, read-out: IC50 (nM) (rPfSUB1)

T1 sequence (Q8I0V0 218-688): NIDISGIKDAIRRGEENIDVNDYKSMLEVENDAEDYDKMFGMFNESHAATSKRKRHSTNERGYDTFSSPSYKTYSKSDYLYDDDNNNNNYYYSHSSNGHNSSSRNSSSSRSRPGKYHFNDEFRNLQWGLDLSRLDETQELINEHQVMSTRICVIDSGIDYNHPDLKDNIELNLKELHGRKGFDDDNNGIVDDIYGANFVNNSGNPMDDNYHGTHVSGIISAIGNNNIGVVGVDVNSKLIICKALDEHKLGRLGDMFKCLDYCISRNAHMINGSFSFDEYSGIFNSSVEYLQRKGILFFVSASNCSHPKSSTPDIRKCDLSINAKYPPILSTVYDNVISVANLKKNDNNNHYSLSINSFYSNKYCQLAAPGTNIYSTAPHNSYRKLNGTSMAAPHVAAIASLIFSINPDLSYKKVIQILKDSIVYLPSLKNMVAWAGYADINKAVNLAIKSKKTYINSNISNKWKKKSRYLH

IC50 [3, 10]: 112 ± 2.3 nM
Structure (SMILES): CC(=O)N[C@H](C(=O)N[C@H](C(=O)NCC(=O)NC(B(O)O)c1ccccc1)[C@@H](C)O)C1CCCC1 (stereo partly shown) [3h]

EC50 [6]: 15700 ± 2500 nM | IC50 [3, 10]: 4.6 ± 0.1 nM
Structure (SMILES): CC(=O)N[C@H](C(=O)N[C@H](C(=O)NCC(=O)N[C@H]1CCOB1O)[C@@H](C)O)C1CCCC1 [3e]
EC50 [5]: 15 ± 3.6 µM

IC50 [3, 10]: 54.3 ± 1.1 nM
Structure (SMILES): CC(=O)N[C@H](C(=O)N[C@H](C(=O)NCC(=O)NCB(O)O)[C@@H](C)O)C1CCCC1 [3d]
EC50 [5]: 1.9 ± 0.4 µM

IC50 [3, 10]: 60.1 ± 2.1 nM
Structure (SMILES): CC(=O)N[C@H](C(=O)N[C@H](C(=O)NCC(=O)N[C@H](C)B(O)O)[C@@H](C)O)C1CCCC1 [3c]
EC50 [5]: 18.4 ± 1.8 µM

EC50 [6]: 12700 ± 800 nM | IC50 [3, 10]: 9.3 ± 0.5 nM
Structure (SMILES): CC(=O)NC(C(=O)NC(C(=O)NCC(=O)NC(C)B(O)O)C(C)O)C1CCCC1 (stereo not shown) [3b]
EC50 [5]: 2.3 ± 1.4 µM

IC50 [3, 10]: 204 ± 7.5 nM
Structure (SMILES): CC(=O)N[C@H](C(=O)N[C@H](C(=O)NCC(=O)N[C@H]1CCCOB1O)[C@@H](C)O)C1CCCC1 [3f]

IC50 [3, 10]: 69.4 ± 1.2 nM
Structure (SMILES): CCC(C)[C@H](NC(C)=O)C(=O)N[C@H](C(=O)NCC(=O)N[C@@H](C)B(O)O)[C@@H](C)O (stereo partly shown) [3a]
EC50 [5]: 1.8 ± 0.6 µM

Further lines, the compound ahead of its results:

Structure (SMILES): CC(=O)N[C@H](C(=O)N[C@H](C(=O)NCC(=O)NC(C)C(=O)C(=O)NCCC(=O)O)[C@@H](C)O)C(C)C (stereo partly shown) [compound 1]
IC50 ([1]; Table S1): 900 ± 200 nM | IC50 ([1]; earlier work): ~900 nM | antiparasite activity in vitro / parasite growth assay [2]: no antiparasite activity in vitro; also recorded: no activity in parasite growth assay

Structure (SMILES): CC(C)C[C@H](NC(=O)CNC(=O)c1cc(Cl)ccc1Cl)B(O)O [ixazomib]
terminal half-life [4]: ~228 h

Structure (SMILES): CN(C)Cc1ccn2c(-c3ccnc(N)n3)c(-c3ccc(F)cc3)nc2c1 [C2, 4-[7-[(dimethylamino)methyl]-2-(4-fluorphenyl)imidazo[1,2-α]pyridine-3-yl]pyrimidin-2-amine, reference compound]
time of egress initiation following washout [7]: ~6.5 min | ring production after washout [8]: produced rings efficiently | SERA5 proteolytic processing [9]: blocked

Structure (SMILES): CC(=O)N[C@H](C(=O)N[C@@H](C)C(=O)NCC(=O)N[C@@H](C)B(O)O)C1CCCC1 [3i]
EC50 [5]: 0.34 ± 0.08 µM | improved growth inhibitory potency ([5]; relative to compound 3b): ~10 fold | schizont phenotype in Giemsa-stained thin films ([6]; 10 μM, 4 h incubation): arrest of unruptured schizonts with no ring formation | EC50 [6]: 2000 ± 100 nM | IC50 [3, 10]: ~7.8 nM and 7.8 nM

Structure (SMILES): CC(=O)N[C@H](C(=O)N[C@H](C(=O)NCC(=O)N[C@H]1CCC(=O)OB1O)[C@@H](C)O)C1CCCC1 [3g]
IC50 [3, 10]: 18.7 ± 1.3 nM

Structure (SMILES): CC(=O)N[C@H](C(=O)N[C@H](C(=O)NCC(=O)NC(C)C(=O)C(=O)NCCC(=O)O)[C@@H](C)O)C1CCCC1 (stereo partly shown) [2a]
activity in parasite growth assay [5]: no activity in parasite growth assay | IC50 ([3]; IC50(PfSUB1), Fig. 1): 400 nM | IC50 ([3]; IC50 (nM) (rPfSUB1), fluorogenic peptide substrate, mean ± SD of at least three measurements): ~370 nM and 370 nM | inhibition at 10 µM ([3]; read-out: degree of rPfSUB1 inhibition at 10 µM (%)): 97%

From publication PMC8157947, “Peptidic boronic acids are potent cell-permeable inhibitors of the malaria parasite egress serine protease SUB1” (Proceedings of the National Academy of Sciences of the …, 2021)
